The numbers were not newly measured in patent US20100093758A1, “PYRIDINE SULFONAMIDE MODULATORS OF ENDOTHELIN-A RECEPTOR” (AUSPEX PHARMACEUTICALS, INC., priority 2008, published 2010), which cites them from elsewhere.

Assay in data set [1]: not given
The source holds these as a separate data set.

As for `COc1ccccc1Oc1c(NS(=O)(=O)c2ccc(C)cn2)nc(-c2ccncc2)nc1OC` [Avosentan, 5-Methyl-pyridine-2-sulfonic acid [6-methoxy-5-(2-methoxy-phenoxy)-2-pyridin-4-yl-pyrimidin-4-yl]-amide], the fluid retention entry (at high concentrations) is “higher-than-expected rate of fluid retention”. In addition, the adverse events result (typical for vasodilating agents) is “headache, nausea and vomiting, dizziness, and postural hypotension”. In data set [1] (doses up to 100 mg), the “dose dependence of Cmax and AUC” value is given as “increase linearly with doses up to 100 mg”. In data set [1] (in vivo), the “time at which maximum plasma levels are reached” value is no more than 4.5 h and the urinary excretion entry is recorded as “below 0.1 % of any dose”. The “food effect on exposure and Cmax” value in data set [1] (with food) is listed as “does not affect overall exposure but increases Cmax”.
